Experimental data from paper PMC4684479 (Molecular imaging and biology : MIB : the official …, 2016).

Legend:
[1] = conventional NIR fluorophores; cited from earlier work
[2] = Optical properties of NIR fluorophores in 100% serum, pH 7.4; assay type: physicochemical
[3] = Stability in warm serum, 24 h, 37°C; assay type: in vitro ADME; details: 100% serum, pH 7.4, 24 h
[4] = set-up: species or system Sprague-Dawley rat; details: rat, in vivo, iv
[5] = in serum; cited from earlier work
bovine serum albumin = bovine serum albumin (Bos taurus, UniProt P02769); test: Serum protein binding by gel filtration chromatography; assay type: in vitro ADME; details: GFC after incubation in bovine serum albumin solution at 37°C for 4 h
Sequence of bovine serum albumin (P02769 25-607): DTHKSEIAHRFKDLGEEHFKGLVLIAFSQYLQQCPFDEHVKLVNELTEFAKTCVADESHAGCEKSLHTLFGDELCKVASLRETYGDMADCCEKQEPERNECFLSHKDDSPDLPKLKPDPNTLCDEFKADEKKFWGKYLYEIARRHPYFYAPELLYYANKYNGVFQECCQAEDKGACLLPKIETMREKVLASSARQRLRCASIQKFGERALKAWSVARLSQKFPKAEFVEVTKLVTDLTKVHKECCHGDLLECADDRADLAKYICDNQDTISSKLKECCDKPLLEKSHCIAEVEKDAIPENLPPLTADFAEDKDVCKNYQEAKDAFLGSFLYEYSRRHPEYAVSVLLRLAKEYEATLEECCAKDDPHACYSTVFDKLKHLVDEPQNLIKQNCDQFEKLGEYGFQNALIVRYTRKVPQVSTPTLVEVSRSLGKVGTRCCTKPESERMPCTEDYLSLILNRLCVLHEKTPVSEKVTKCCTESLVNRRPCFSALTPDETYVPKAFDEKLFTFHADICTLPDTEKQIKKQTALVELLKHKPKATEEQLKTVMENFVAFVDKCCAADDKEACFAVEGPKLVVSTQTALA

SMILES	LogD at pH 7.4 [1]	Absorbance Maximum [2] [nm]	Emission Maximum [2] [nm]	Extinction Coefficient [2]	Quantum Yield [2] [%]	Stokes Shift [2] [nm]	Stability (%) at 24 h, 37°C [3] [%]	clearance route seen by dual-channel imaging [4]	molar extinction coefficient (ε) [5]	quantum yield (QY) [5] [%]	Serum protein binding (bovine serum albumin)
CC1(C)C(=CC=C2CCCC(C=CC3=[N+](CCCCCC(=O)[O-])c4ccc(S(=O)(=O)[O-])cc4C3(C)C)=C2Oc2ccc(S(=O)(=O)[O-])cc2)N(CCCCS(=O)(=O)[O-])c2ccc(S(=O)(=O)[O-])cc21.[Na+].[Na+].[Na+].[Na+] [IRDye 800CW]	2.51										
CC1(C)C(/C=C/C(=C/C=C2/N(CCC[N+](C)(C)C)c3ccc(S(=O)(=O)[O-])cc3C2(C)C)c2ccc(CCC(=O)[O-])cc2)=[N+](CCC[N+](C)(C)C)c2ccc(S(=O)(=O)[O-])cc21 [ZW700-1c]		646	663	199,000 M^−1cm^−1	19.5	17	99				
CC1(C)C(/C=C/C=C/C=C/C=C2\N(CCCCS(=O)(=O)[O-])c3ccc4ccccc4c3C2(C)C)=[N+](CCCCS(=O)(=O)[O-])c2ccc3ccccc3c21.[Na+] [ICG]								extracted from blood by the liver and excreted into bile	121,000 M^−1cm^−1	9.3	significant serum protein binding
CN(C)c1ccc2nc3ccc(=[N+](C)C)cc-3sc2c1 [Methylene Blue]		665	685	71,200 M^−1cm^−1	3.8	20	99				
